# Assay results taken from paper PMC8512870, “Anti-Fungal Hevein-like Peptides Biosynthesized from Quinoa Cleavable Hololectins” (Molecules, 2021).
# Where a SMILES comes first, the peptide text is derived from it. Bridges are numbered along the chain shown (N, C = ends).
# Tests used:
# [1] = system: Alternaria alternata (CICC 2465); test: Microbroth dilution anti-fungal assay; format: cell-based; settings: spores 1 × 10^5 cells/mL in half-strength potato dextrose broth, 25 °C, 24 h, crystal violet, absorbance 570 nm, listed as chenotide cQ2, read-out: IC50 against Alternaria alternata
# Protocol: (§1) The half-maximal inhibitory concentration levels (IC50) of peptides were determined by a microbroth dilution assay. Fungal spores were harvested from a 4-day-old actively growing fungal plate and suspended in half-strength potato dextrose broth. Spore suspensions (1 × 10^5 cells/mL) were mixed with peptides at varying concentrations in 96-well microplates and incubated at 25 °C for 24 h. The cells were then fixed with 100% methanol for 15 min and stained for 45 min with crystal violet dye. Excess dye was removed with MilliQ water. Elution was performed using 1:1 (v/v) ethanol/0.1 N HCl. The absorbance was measured at 570 nm.
# [2] = system: Curvularia lunata (CICC 40301); test: Microbroth dilution anti-fungal assay; format: cell-based; settings: spores 1 × 10^5 cells/mL in half-strength potato dextrose broth, 25 °C, 24 h, crystal violet, absorbance 570 nm, listed as chenotide cQ2, read-out: IC50 against Curvularia lunata
# Protocol: as §1
# [3] = system: Fusarium oxysporum (CICC 2532); test: Microbroth dilution anti-fungal assay; format: cell-based; settings: spores 1 × 10^5 cells/mL in half-strength potato dextrose broth, 25 °C, 24 h, crystal violet, absorbance 570 nm, listed as chenotide cQ2, read-out: IC50 against Fusarium oxysporum
# Protocol: as §1
# [4] = system: Rhizoctonia solani (CICC 40259); test: Microbroth dilution anti-fungal assay; format: cell-based; settings: spores 1 × 10^5 cells/mL in half-strength potato dextrose broth, 25 °C, 24 h, crystal violet, absorbance 570 nm, listed as chenotide cQ2, read-out: IC50 against Rhizoctonia solani
# Protocol: as §1
# [5] = system: pepsin; test: Proteolytic stability, pepsin; format: in vitro ADME; settings: recommended buffer, RP-HPLC peak area and MALDI-TOF MS, n = 3
# Protocol: (§2) Assessments of thermal, acidic and proteolytic stability were performed as previously described. Purified chenotide cQ2 was incubated at the stated conditions and recommended buffer solution. At each time interval, samples were aliquoted in triplicate and RP-UPLC was performed. The area under the peak was used to determine the amount of chenotide present before and after treatment.
# [6] = system: aminopeptidase I; test: Proteolytic stability, aminopeptidase I; format: in vitro ADME; settings: recommended buffer, RP-HPLC peak area and MALDI-TOF MS, n = 3
# Protocol: as §2
# [7] = Stability in horse serum; format: in vitro ADME; settings: RP-HPLC peak area and MALDI-TOF MS, n = 3
# Protocol: as §2
# [8] = Stability in human serum; format: in vitro ADME; settings: RP-HPLC peak area and MALDI-TOF MS, n = 3
# Protocol: as §2
structure (smiles),measurement,setting,value
"CC(C)C[C@@H]1NC(=O)CNC(=O)CNC(=O)[C@@H]2CCCN2C(=O)[C@@H]2CSSC[C@@H]3NC(=O)[C@H](Cc4ccccc4)NC(=O)CNC(=O)[C@H](Cc4ccccc4)NC(=O)[C@H](CCCCN)NC(=O)[C@H](CO)NC(=O)[C@H](CSSC[C@H](NC(=O)[C@H](CCC(=O)O)NC(=O)CNC(=O)[C@H](C)N)C(=O)N[C@@H](C(C)C)C(=O)N[C@@H](CCCNC(=N)N)C(=O)NCC(=O)N[C@@H](CCCNC(=N)N)C(=O)N2)NC(=O)[C@H](CSSC[C@@H](C(=O)NCC(=O)NCC(=O)O)NC(=O)[C@H](Cc2ccc(O)cc2)NC(=O)[C@H](C)NC(=O)[C@@H]2CCCN2C(=O)CNC(=O)[C@H](CO)NC(=O)CNC3=O)NC1=O [cQ2] (H-AGECVRGRCPGGLCCSKFGFCGSGPAYCGG-OH; disulfide 4-15, 9-21, 14-28)",IC50,[1],~9 µM
same,IC50,[2],~5 µM
same,IC50,[3],~0.3 µM
same,IC50,[4],~3 µM
same,Peptide retained after pepsin treatment,[5],> 80%
same,Peptide retained after aminopeptidase I treatment,[6],> 80%
same,Peptide retained after horse serum treatment,[7],> 80%
same,Peptide retained after human serum treatment,[8],> 80%
